Experimental data as given in patent publication US10694724B2, “Transgenic mouse for the assessment of thyroid hormone (TH) action” (MAGYAR TUDOMÁNYOS AKADÉMIA KÍSÉRLETI ORVOSTUDOMÁNYI KUTATÓ …, priority 2014, dated 2020).
“Also recorded” adds a separate entry of the source.

What was measured:
[1] = test system: luciferase mRNA as a readout of TH action; assay: Luciferase mRNA by TaqMan qPCR in the pituitary of line #23; assay type: in vivo, mouse; settings: TaqMan assay
Method: Expression was assessed with TaqMan assay, Luciferase expression level was denominated with GAPDH expression used as housekeeping gene. Mean±SEM (n=5) *** p<0.0001 by t test.
We also studied whether detection of luciferase mRNA can be used to detect as a readout of TH action in the generated transgenic model. […] TaqMan qPCR was performed on a ViiA 7 Real-Time PCR System (Life Technologies) according to the instructions of the manufacturer. In short, reverse transcription was performed with High Capacity cDNA Reverse Transcriptase Kit (Applied Biosystems by Life Technologies) and concentration of the cDNA was determined using the Qubit 2.0 Fluorometer with the Qubit ssDNA Assay Kit (Life Technologies). A custom Luciferase coding probe was used along with a commercially available probe for Glyceraldehyde-3-phosphate dehydrogenase (GAPDH), later used as housekeeping gene.

[2] = test system: thyroid hormone receptor isoform specific action (TRβ dominant liver, TRα dominant heart; Luciferase reporter); assay: Testing TR isoform specific agonists: Luciferase activity in liver and heart of line #4 with decreased endogenous thyroid hormone; assay type: in vivo, mouse
Method: FIG. 7. The transgenic mouse model is capable to detect thyroid hormone receptor isoform specific T3 actions. […] Mean±SEM (n=5) ** p<0.01 by t test.
We decreased the endogenous thyroid hormone levels in line #4 by administering methimazole and perchlorate (0.1% methimazole, 0.5% perchlorate) in the drinking water followed by the i.p. injection of 1.53 nM/g BW of GC-24, a TRβ specific agonist (35). Luciferase activity assay was performed using our established protocol (34) modified for tissue samples, that included treatment of mouse tissue with liquid nitrogen, followed by sonication. In vivo Luciferase imaging has been performed on an IVIS Lumina II In vivo Imaging System (PerkinElmer Waltham, Mass., USA) according to the instructions of the manufacturer.

[3] = test system: TH action in live animals (Luciferase reporter); assay: In vivo bioluminescence imaging of Luciferase in live line #4 mice; parameters: species or system mouse; settings: 1 μg/g BW T3 i.p., luciferin 24 h later
Method: Mean±SEM (n=4) ** p<0.01 **p<0.0001 by t test.
After 15 min, mice were anesthetized with ketamine followed by detection with […] In vivo Imaging System (PerkinElmer Waltham, Mass., USA).

[4] = test system: THAIC construct in HEK293 cells with mouse TRα; assay: Luciferase promoter assay in HEK293 cells transfected with THAIC and mouse TRα plasmid; assay type: cell-based, human; settings: HEK293 transfected with THAIC, SB100 and mouse TRα plasmid; 100 nM T3
Method: The THAIC construct was transfected to the human HEK293 cells along with a pCMV(CAT)T7-SB100 Sleeping Beauty transposon expressing vector and a mouse TRα encoding plasmid. Transfection and cell culturing of HEK293 cells was performed according to our established protocol (36). (FIG. 10)
(B) We also used zeocin-assisted selection and obtained cultures stably expressing Luciferase and generated the HEK293-THAIC cell line stably expressing the TH action indicator construct of the THAM model. The reporter of the cell line is responsive to TH in a TR dependent manner.

[5] = test system: thyroid hormone (TH) action (3xTRE-TK driven Luciferase reporter); assay: Luciferase activity (luciferase assay) in tissues of THAIM line #4 mice; assay type: in vivo, mouse; settings: for Fold (mean ± SEM), induced/basal Luciferase activity / induced Luciferase activity: line #4, T4 5 ug/mouse/day for 3 days i.p.
Method: (§1) (A, B, C) T4 treatment (5 ug/mouse/day for 3 days; i.p.) in mouse lines #4, 18, and 23. […] All experiments were performed on homozygote males.
(§2) Unilateral denervation of sympathetic nerves innervating the iBAT has been performed as described in (32). Measurement of the activity of type 2 deiodinase was performed according to the American Thyroid Association Guide to investigating thyroid hormone economy and action in rodent and cell models (33)). THAIM #4 mice underwent unilateral denervation of sympathetic nerves innervating the BAT. Luciferase activity assay was performed using our established protocol (34) modified for tissue samples.

[6] = test system: thyroid hormone (TH) action (3xTRE-TK driven Luciferase reporter); assay: Luciferase activity (luciferase assay) in tissues of THAIM line #23 mice; assay type: in vivo, mouse; settings: for Fold (mean ± SEM), induced/basal Luciferase activity / induced Luciferase activity: line #23, T4 5 ug/mouse/day for 3 days i.p.
Method: as §1, §2

[7] = test system: thyroid hormone (TH) action (3xTRE-TK driven Luciferase reporter); assay: Luciferase activity (luciferase assay) in tissues of THAIM line #18 mice; assay type: in vivo, mouse
Method: Characterization of the #4, 18 and 23 lines identified thyroid hormone (5 ug of T4/day/mouse for 3 days) induced induction of Luciferase expression in various tissues of homozygote males.
Basal and thyroid hormone induced values and fold changes (induced/basal) of Luciferase activities in tissues of sacrificed animals (Mean±SEM, n=4). P values oft test (basal vs. induced) are provided, * represents statistical significance. (A, B, C) T4 treatment (5 ug/mouse/day for 3 days; i.p.) in mouse lines #4, 18, and 23. Basal activity levels in #18 are higher than other two lines. […] All experiments were performed on homozygote males.
as §2, with “(FIG. 4). Unilateral” for “Unilateral”, “samples. […] This increase was abolished by denervation but TH action was maintained at room temperature (intact vs. denervated). (A). In the denervated samples, this was paralleled by abolished response of D2 activity to cold and maintenance of the basal D2 activity in the denervated lobe at room temperature (B).” for “samples.”

[8] = Mandibular salivatory gland (MSG)
[9] = line #18, Cerebellum, T4 5 ug/mouse/day for 3 days i.p.
[10] = line #18, Cortex, T4 5 ug/mouse/day for 3 days i.p.
[11] = line #18, HC, T4 5 ug/mouse/day for 3 days i.p.
[12] = line #18, HT, T4 5 ug/mouse/day for 3 days i.p.
[13] = line #18, MBH, T4 5 ug/mouse/day for 3 days i.p.
[14] = line #18, Pit, T4 5 ug/mouse/day for 3 days i.p.

## N[C@@H](Cc1cc(I)c(Oc2ccc(O)c(I)c2)c(I)c1)C(=O)O [T3, 3,5,3′-triiodothyronine]
[1]; 1 μg/g bw T3 i.p., GAPDH housekeeping
  induction of luciferase mRNA in the pituitary: ~50 fold
[1]; T3-treatment, denominated with GAPDH
  Luciferase mRNA level in the pituitary: robustly increased
[2]; T3 administration
  luciferase activity in both tissues (liver and heart): significant increase
[3]
  reporter activity in the BAT and intestine (in vivo imaging): very intense increase
  reporter activity in the mandibular salivary gland (MSG) and skin of the tail and foot pads (in vivo imaging): up-regulated
[4]
  induction of Luciferase expression: approximately 4 fold

## N[C@@H](Cc1cc(I)c(Oc2cc(I)c(O)c(I)c2)c(I)c1)C(=O)O [T4, thyroxine]
[5]; Bone
  Fold (mean ± SEM), induced/basal Luciferase activity: 2.2 ± 0.18 Fold
  induced Luciferase activity: 0.066 RLU/mg protein
[5]; Cerebellum (CER)
  Fold (mean ± SEM), induced/basal Luciferase activity: 2.3 ± 0.41 Fold
  induced Luciferase activity: 2.162 RLU/mg protein
[5]; Cortex (CTX)
  Fold (mean ± SEM), induced/basal Luciferase activity: 1.9 ± 0.30 Fold
  induced Luciferase activity: 0.359 RLU/mg protein
[5]; Heart
  Fold (mean ± SEM), induced/basal Luciferase activity: 8.5 ± 0.31 Fold
  induced Luciferase activity: 0.030 RLU/mg protein
[5]; Hippocampus (HC)
  Fold (mean ± SEM), induced/basal Luciferase activity: 1.9 ± 0.03 Fold
  induced Luciferase activity: 0.116 RLU/mg protein
[5]; Hypothalamus (HT)
  Fold (mean ± SEM), induced/basal Luciferase activity: 1.3 ± 0.08 Fold
  induced Luciferase activity: 0.488 RLU/mg protein
[5]; Intestine
  Fold (mean ± SEM), induced/basal Luciferase activity: 2.1 ± 0.30 Fold
  induced Luciferase activity: 9.480 RLU/mg protein
[5]; Liver
  Fold (mean ± SEM), induced/basal Luciferase activity: 1.9 ± 0.14 Fold
  induced Luciferase activity: 0.005 RLU/mg protein
[5]; [8]
  Fold (mean ± SEM), induced/basal Luciferase activity: 7.6 ± 2.60 Fold
  induced Luciferase activity: 0.399 RLU/mg protein
[5]; Mediobasal Hypothalamus (MBH)
  Fold (mean ± SEM), induced/basal Luciferase activity: 1.8 ± 0.20 Fold
  induced Luciferase activity: 0.368 RLU/mg protein
[5]; Muscle
  Fold (mean ± SEM), induced/basal Luciferase activity: 11.2 ± 5.7 Fold
  induced Luciferase activity: 0.276 RLU/mg protein
[5]; Pituitary (Pit)
  Fold (mean ± SEM), induced/basal Luciferase activity: 2.3 ± 0.16 Fold
  induced Luciferase activity: 0.791 RLU/mg protein
[5]; Skin
  Fold (mean ± SEM), induced/basal Luciferase activity: 4.0 ± 0.76 Fold
  induced Luciferase activity: 2.798 RLU/mg protein
[5]; Testicle
  Fold (mean ± SEM), induced/basal Luciferase activity: 0.8 ± 0.06 Fold
  induced Luciferase activity: 4.09 RLU/mg protein
[5]; Thyroid
  Fold (mean ± SEM), induced/basal Luciferase activity: 1.5 ± 0.07 Fold
  induced Luciferase activity: 0.176 RLU/mg protein
[5]; iBAT
  Fold (mean ± SEM), induced/basal Luciferase activity: 64.6 ± 8.1 Fold
  induced Luciferase activity: 1.820 RLU/mg protein
[5]; line #4 homozygote males, 5 ug of T4/day/mouse for 3 days
  induction of Luciferase expression in the BAT: striking response
[6]; Bone
  Fold (mean ± SEM), induced/basal Luciferase activity: 0.9 ± 0.56 Fold
  induced Luciferase activity: 0.011 RLU/mg protein
[6]; CER
  Fold (mean ± SEM), induced/basal Luciferase activity: 1.9 ± 0.28 Fold
  induced Luciferase activity: 0.023 RLU/mg protein
[6]; CTX
  Fold (mean ± SEM), induced/basal Luciferase activity: 1.8 ± 0.21 Fold
  induced Luciferase activity: 0.065 RLU/mg protein
[6]; HC
  Fold (mean ± SEM), induced/basal Luciferase activity: 1.1 ± 0.32 Fold
  induced Luciferase activity: 0.040 RLU/mg protein
[6]; HT
  Fold (mean ± SEM), induced/basal Luciferase activity: 2.7 ± 1.35 Fold
  induced Luciferase activity: 0.144 RLU/mg protein
[6]; Heart
  Fold (mean ± SEM), induced/basal Luciferase activity: 1.0 ± 0.47 Fold
  induced Luciferase activity: 0.003 RLU/mg protein
[6]; Liver
  Fold (mean ± SEM), induced/basal Luciferase activity: 1.7 ± 0.19 Fold
  induced Luciferase activity: 0.004 RLU/mg protein
[6]; MBH
  Fold (mean ± SEM), induced/basal Luciferase activity: 1.7 ± 0.29 Fold
  induced Luciferase activity: 0.240 RLU/mg protein
[6]; Muscle
  Fold (mean ± SEM), induced/basal Luciferase activity: 0.7 ± 0.18 Fold
  induced Luciferase activity: 0.003 RLU/mg protein
[6]; Pit
  Fold (mean ± SEM), induced/basal Luciferase activity: 8.8 ± 0.62 Fold
  induced Luciferase activity: 16.926 RLU/mg protein
[6]; iBAT
  Fold (mean ± SEM), induced/basal Luciferase activity: 7.2 ± 1.54 Fold
  induced Luciferase activity: 0.038 RLU/mg protein
[6]; line #23 homozygote males, 5 ug of T4/day/mouse for 3 days
  response of Luciferase expression in the pituitary and hypothalamus: intense response
[7]; [9]
  Fold (mean ± SEM), induced/basal Luciferase activity: 1.8 ± 0.31 Fold
  induced Luciferase activity: 0.063 RLU/mg protein
[7]; [10]
  Fold (mean ± SEM), induced/basal Luciferase activity: 1.9 ± 1.18 Fold
  induced Luciferase activity: 2.586 RLU/mg protein
[7]; [11]
  Fold (mean ± SEM), induced/basal Luciferase activity: 2.1 ± 0.25 Fold
  induced Luciferase activity: 3.756 RLU/mg protein
[7]; [12]
  Fold (mean ± SEM), induced/basal Luciferase activity: 2.8 ± 0.35 Fold
  induced Luciferase activity: 1.589 RLU/mg protein
[7]; line #18, Liver (cell also covers Heart, iBAT, Bone, Muscle, MSG, Thyroid, Testicle, Intestine), T4 5 ug/mouse/day for 3 days i.p.
  Luciferase activity (basal and induced): no expression
[7]; [13]
  Fold (mean ± SEM), induced/basal Luciferase activity: 2.2 ± 0.25 Fold
  induced Luciferase activity: 0.602 RLU/mg protein
[7]; [14]
  Fold (mean ± SEM), induced/basal Luciferase activity: 8.2 ± 0.36 Fold
  induced Luciferase activity: 0.540 RLU/mg protein
[7]; line #18 homozygote males, 5 ug of T4/day/mouse for 3 days
  response of Luciferase expression in the pituitary: intense response

## Cc1cc(OCC(=O)O)cc(C)c1Cc1ccc(O)c(Cc2ccccc2)c1 [GC-24]
[2]; i.p. 1.53 nM/g BW, after 24 hours, TRα isoform dominant heart
  Luciferase activity in heart: did not change; also recorded: no significant change
[2]; i.p. 1.53 nM/g BW, after 24 hours, TRβ isoform dominant liver
  Luciferase activity in liver: significantly increased
